Data as given in PubChem BioAssay (NCI).
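1) Cells in 96-well plates. 2) Compound, 48 h, 5 concentrations. 3) Linear interpolation between surrounding doses. 4) Unreached endpoint = highest concentration. TGI marks complete inhibition of growth.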 Where a SMILES comes first, the peptide text is derived from it. Bridges are numbered along the chain shown (N, C = ends). [ ]: non-standard residue; d: D form. The star is where a group is joined. PhAc = O=C(Cc1ccccc1)*

Experiments:
Test in all cases: inhibition of tumour cell growth, NCI panel, 48 h
MDA-MB-435 = tested on: MDA-MB-435
SF-268 CNS = tested on: SF-268 CNS
HOP-92 NSCLC = tested on: HOP-92 NSCLC
PC-3 prostate = tested on: PC-3 prostate
HT29 colon = tested on: HT29 colon
NCI/ADR-RES ovarian = tested on: NCI/ADR-RES ovarian
MCF7 breast = tested on: MCF7 breast
SNB-19 CNS = tested on: SNB-19 CNS
KM12 colon = tested on: KM12 colon
MDA-N = tested on: MDA-N
IGROV1 ovarian = tested on: IGROV1 ovarian
HCC-2998 colon = tested on: HCC-2998 colon
MOLT-4 leukemia = tested on: MOLT-4 leukemia
LOX IMVI melanoma = tested on: LOX IMVI melanoma
SR leukemia = tested on: SR leukemia
HOP-62 NSCLC = tested on: HOP-62 NSCLC
DU-145 prostate = tested on: DU-145 prostate
OVCAR-8 ovarian = tested on: OVCAR-8 ovarian
SN12C renal = tested on: SN12C renal

Structure (SMILES)	TGI (MDA-MB-435) [µM]	TGI (SF-268 CNS) [µM]	TGI (HOP-92 NSCLC) [µM]	TGI (PC-3 prostate) [µM]	TGI (HT29 colon) [µM]	TGI (NCI/ADR-RES ovarian) [µM]	TGI (MCF7 breast) [µM]	TGI (SNB-19 CNS) [µM]	TGI (KM12 colon) [µM]	TGI (MDA-N) [µM]	TGI (IGROV1 ovarian) [µM]	TGI (HCC-2998 colon) [µM]	TGI (MOLT-4 leukemia) [µM]	TGI (LOX IMVI melanoma) [µM]	TGI (SR leukemia) [µM]	TGI (HOP-62 NSCLC) [µM]	TGI (DU-145 prostate) [µM]	TGI (OVCAR-8 ovarian) [µM]	TGI (SN12C renal) [µM]
C=C(C)CNC(=S)N(N)c1ccc(OC)cc1	> 100	> 100	> 100	> 100	> 100	> 100	> 100	> 100	> 100	> 100	> 100	> 100	> 100	> 100	> 100	> 100	> 100	> 100	> 100
CCOC(=O)C(NC(=O)C(CCCCNP(=O)(OCC)OCC)NC(=O)C(C)NC(C)=O)C(C)C (stereo unspecified)	> 100	> 100	> 100	> 100	> 100	> 100	> 100	> 100	> 100	> 100	> 100	> 100	> 100	> 100	> 100	> 100	> 100	> 100	> 100
O=C(Nc1ccc(Cl)cc1)NS(=O)(=O)c1coc2ccccc2c1=O	> 10	> 10	> 10	> 10	> 10	> 10	> 10	> 10	> 10	> 10	> 10	> 10	> 10	> 10	> 10	> 10	> 10	> 10	> 10
O=Nc1c(-c2c(O)[nH]c3ccccc23)[nH]c2ccccc12	> 39.7	> 74.1	> 29.6	28.1	> 57.8	> 100	> 23.9	> 100	> 38.7	> 47.4	22	16.3	> 100	41.4	> 100	> 48.6	31	> 45.5	13.3
C=C1[C@H](OC(=O)C(C)C)[C@@H](OC(C)=O)[C@@H](OC(C)=O)C(C)(C)[C@@H]2O[C@H]2[C@@H](C)C(=O)[C@@]2(OC(C)=O)C[C@@](C)(OC(C)=O)[C@H](OC(C)=O)[C@@H]2[C@H]1OC(C)=O	> 100	> 100	> 100	> 100	> 100	> 100	> 100	> 100	> 100	> 100	> 100	> 100	> 100	> 100	> 100	> 100	> 100	> 100	> 100
Cc1cc(N)ccc1N=Nc1ccc(S(=O)(=O)CCOS(=O)(=O)O)cc1	0.502	21.7	19.5	12.7	6.53	> 100	11.8	19.3	13.2	0.755	13.9	6.74	> 32.5	2.97	> 100	22.6	> 100	5.89	11.1
Cc1cc(=O)oc2cc(SC(=O)N(C)C)ccc12	> 100	> 100	> 100	> 100	> 100	> 100	> 100	> 100	> 100	> 100	> 100	> 100	> 100	> 100	> 100	> 100	> 100	> 100	> 100
Cc1c(-c2ccccc2)[nH]c2ccc(Cl)cc2c1=O	57.3	> 100	52	> 100	> 100	> 100	> 100	> 100	28.1	54.6	> 100	> 100	> 100	> 100	> 100	50.2	> 100	69.5	> 100
C=C[C@]1(O)CCC[C@]2(C)C(=O)CCC12C (stereo partly specified)	> 100	> 100	> 100	> 100	> 100	> 100	> 100	> 100	> 100	> 100	> 100	> 100	> 100	> 100	> 100	> 100	> 100	> 100	> 100
Nc1ccc(Oc2ccc(C3(c4ccc(Oc5ccc(N)cc5)cc4)C4CC5C6CC7CC5C3C(C7)C6C4)cc2)cc1	82.9	> 100	49	> 100	> 100	> 100	> 100	> 100	> 87.8	> 100	> 100	> 77.9	> 100	> 66.4	> 100	> 100	> 100	> 100	98.5
CC1=C(C#N)C23C(=O)c4ccccc4C(O)=C2C(=O)C=CC3(O)N1 (stereo unspecified)	9.37	26.2	6.38	28.7	5.02	> 100	4.59	25.5	38.6	3.95	17.2	23	> 100	18.9	1.5	51	7.69	> 100	6.19
C=CCOc1ccc(/C(N=Nc2ccc(C)cc2)=N/NC(=O)c2ccccc2)cc1OC	47.3	> 100	41.8	> 100	> 100	> 100	83.6	> 100	48.7	57.6	62.1	76.5	> 100	41.5	25	> 100	> 100	91.4	> 100
O=C(Cc1ccccc1)N[C@@H]1COC(=O)[C@@H]2CCCN2C(=O)[C@@H]2CCCN2C1=O (PhAc-[dS]-Pro-Pro; ester 1-C)	> 100	> 100	> 100	> 100	> 100	> 100	> 100	> 100	> 100	> 100	> 100	> 100	> 100	> 100	> 100	> 100	> 100	> 100	> 100
CC1C(=NO)C(C)C(c2ccccc2)N(N=O)C1c1ccccc1 (stereo unspecified)	44.8	35.7	49.3	> 100	33.8	37	> 100	50.5	29.8	36.3	52.9	33.8	44.6	29.3	45.7	41.6	90.8	41.5	28.8
CC1(C)C=Cc2c(cc3oc4ccc5c(c4c(=O)c3c2O)C=CC(C)(C)O5)O1	> 100	> 100	> 100	> 100	> 100	> 100	> 100	> 100	> 100	> 100	> 100	> 100	> 100	> 100	> 100	> 100	> 100	> 100	> 100
CCN1C(=S)n2cccc2C1CC(=O)c1ccc(Cl)cc1 (stereo unspecified)	> 100	> 100	> 100	> 100	> 100	> 100	> 100	> 100	> 100	> 100	> 100	> 100	90.1	> 100	> 100	> 100	> 100	> 100	> 100
N=c1oc2c(Br)cc(Br)cc2cc1C(=O)Nc1ccccn1	> 100	> 100	> 100	> 100	> 100	> 100	> 100	> 100	> 100	> 100	> 100	> 100	> 100	> 100	> 100	> 100	> 100	> 100	> 100
O=C1OC2C(O)COC2(O)C1(O)C(C[N+](=O)[O-])c1ccc(Cl)cc1 (stereo unspecified)	4.59	31.3	54.2	34.3	6.11	72	5	28.9	18.3	6.98	21.9	13.4	10.9	7.35	19.6	40	34.2	51.1	37.9
O=c1[nH]c(=O)n(C2OC(CO)C(O)C2O)c2ncc(-c3ccc(-c4ccccc4)cc3)nc12 (stereo unspecified)	> 20	> 20	> 20	> 20	> 20	> 20	> 20	> 20	> 20	> 20	> 20	> 20	> 20	> 20	> 20	> 20	> 20	> 20	> 20
CC1(C)C(C#N)=[N+]([O-])C(C)(C)N1O	> 100	> 100	> 100	> 100	> 100	> 100	> 100	> 100	> 100	> 100	> 100	> 100	> 100	> 100	> 100	> 100	> 100	> 100	> 100
CCOC(=O)CC(=O)C(=O)NNC1=NCCN1	> 100	> 100	> 100	> 100	> 100	> 100	> 100	> 100	> 100	> 100	> 100	> 100	> 100	> 100	> 100	> 100	> 100	> 100	> 100
NC(=O)NC(=O)CCC(NS(=O)(=O)c1ccccc1)C(=O)NC(N)=O (stereo unspecified)	> 100	> 100	> 100	> 100	> 100	> 100	> 100	> 100	> 100	> 100	> 100	> 100	> 100	> 100	> 100	> 100	> 100	> 100	> 100
CC(C)/C(Cl)=N/OC(=O)Nc1cccc(C(F)(F)F)c1	26.9	> 64.9	3.33	29.8	10.6	16.7	16.5	34	29.8	23.7	26.6	30	4.42	6.43	3.12	32.1	34.5	31.8	20.1
Cc1ccc2nc(N/N=C/c3ccc(C)s3)cc(C)c2c1	23.1	35.4	21	24.1	12.4	47.2	20	27.2	16.1	20.4	23.6	17.3	53.4	14.4	> 100	31.3	23	31.3	25.3
